Assay results reported in patent publication US20230085307A1, “PYRIDAZINONE COMPOUND AND HERBICIDE” (NISSAN CHEMICAL CORPORATION, priority 2019, published 2023).

Columns and labels:
chickweed [1] = test: Test Example 4: herbicidal effect by soil treatment (Table 19, symbol P); type: in vivo, common chickweed (Stellaria media); details: amount of applied herbicide 320 g/ha
How it was run: (§1)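 Seeds were sown in sterilized diluvial soil and covered with about 1.5 cm of soil. An emulsion formulation diluted with water to a predetermined herbicide amount was sprayed evenly onto the soil surface. Plants grew in a greenhouse at 25° C. to 30° C., and the effect was scored three weeks after application using criteria from an earlier test.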

redroot pigweed [2] = test: Test Example 4: herbicidal effect by soil treatment (Table 19, symbol N); type: in vivo, redroot pigweed (Amaranthus retroflexus); details: amount of applied herbicide 320 g/ha
How it was run: as §1

chickweed [3] = test: Test Example 5: herbicidal effect by foliage application, plastic box (Table 20, symbol P); type: in vivo, common chickweed (Stellaria media); details: foliage application, AAH 320 g/ha, evaluated three weeks after application
How it was run: (§2)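 Plants sown in sterilized diluvial soil and grown 14 days in a greenhouse at 25° C to 30° C, then sprayed on the foliage with the compound's emulsion diluted in water to a predetermined herbicide amount. Injury to weeds and crops scored three weeks after application on a visual rating scale.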

Italian ryegrass [4] = test: Test Example 5: herbicidal effect by foliage application, plastic box (Table 20, symbol K); type: in vivo, Italian ryegrass (Lolium multiflorum); details: foliage application, AAH 320 g/ha, evaluated three weeks after application
How it was run: as §2

Chinese sprangletop = test: Test Example 3: herbicidal effect by foliage application, Wagner pot (Table 18, symbol D); type: in vivo, chinese sprangletop (Leptochloa chinensis); details: amount of applied herbicide 320 g/ha
How it was run: (§3)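 Plants were sown in alluvial soil held under 0.1–0.5 cm standing water and grown 14 days in a greenhouse at 25–30 °C. An emulsifiable formulation, water-diluted to the set dose, was then sprayed onto the foliage, and effects were scored three weeks later using previously defined criteria.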

wild oat [5] = test: Test Example 4: herbicidal effect by soil treatment (Table 19, symbol I); type: in vivo, wild oat (Avena fatua); details: amount of applied herbicide 320 g/ha
How it was run: as §1

green foxtail [6] = test: Test Example 5: herbicidal effect by foliage application, plastic box (Table 20, symbol G); type: in vivo, green foxtail (Setaria viridis); details: foliage application, AAH 320 g/ha, evaluated three weeks after application
How it was run: as §2

velvetleaf [7] = test: Test Example 4: herbicidal effect by soil treatment (Table 19, symbol M); type: in vivo, velvetleaf (Abutilon theophrasti); details: amount of applied herbicide 320 g/ha
How it was run: as §1

barnyard grass [8] = test: Test Example 5: herbicidal effect by foliage application, plastic box (Table 20, symbol H); type: in vivo, barnyard grass (Echinochloa crus-galli); details: foliage application, AAH 320 g/ha, evaluated three weeks after application
How it was run: as §2

Italian ryegrass [9] = test: Test Example 4: herbicidal effect by soil treatment (Table 19, symbol K); type: in vivo, Italian ryegrass (Lolium multiflorum); details: amount of applied herbicide 320 g/ha
How it was run: as §1

blackgrass [10] = test: Test Example 5: herbicidal effect by foliage application, plastic box (Table 20, symbol J); type: in vivo, blackgrass (Alopecurus myosuroides); details: foliage application, AAH 320 g/ha, evaluated three weeks after application
How it was run: as §2

barnyard grass [11] = test: Test Example 4: herbicidal effect by soil treatment (Table 19, symbol H); type: in vivo, barnyard grass (Echinochloa crus-galli); details: amount of applied herbicide 320 g/ha
How it was run: as §1

barnyard grass [12] = test: Test Example 3: herbicidal effect by foliage application, Wagner pot (Table 18, symbol H); type: in vivo, barnyard grass (Echinochloa crus-galli); details: amount of applied herbicide 320 g/ha
How it was run: as §3

windgrass [13] = test: Test Example 5: herbicidal effect by foliage application, plastic box (Table 20, symbol L); type: in vivo, windgrass (Apera spica-venti); details: foliage application, AAH 320 g/ha, evaluated three weeks after application
How it was run: as §2

persian speedwell [14] = test: Test Example 5: herbicidal effect by foliage application, plastic box (Table 20, symbol R); type: in vivo, Persian speedwell (Veronica persica); details: foliage application, AAH 320 g/ha, evaluated three weeks after application
How it was run: as §2

wild oat [15] = test: Test Example 5: herbicidal effect by foliage application, plastic box (Table 20, symbol I); type: in vivo, wild oat (Avena fatua); details: foliage application, AAH 320 g/ha, evaluated three weeks after application
How it was run: as §2

redroot pigweed [16] = test: Test Example 5: herbicidal effect by foliage application, plastic box (Table 20, symbol N); type: in vivo, redroot pigweed (Amaranthus retroflexus); details: foliage application, AAH 320 g/ha, evaluated three weeks after application
How it was run: as §2

southern crabgrass [17] = test: Test Example 5: herbicidal effect by foliage application, plastic box (Table 20, symbol F); type: in vivo, southern crabgrass (Digitaria ciliaris); details: foliage application, AAH 320 g/ha, evaluated three weeks after application
How it was run: as §2

lambsquarters [18] = test: Test Example 5: herbicidal effect by foliage application, plastic box (Table 20, symbol O); type: in vivo, lambsquarters (Chenopodium album); details: foliage application, AAH 320 g/ha, evaluated three weeks after application
How it was run: as §2

blackgrass [19] = test: Test Example 4: herbicidal effect by soil treatment (Table 19, symbol J); type: in vivo, blackgrass (Alopecurus myosuroides); details: amount of applied herbicide 320 g/ha
How it was run: as §1

lambsquarters [20] = test: Test Example 4: herbicidal effect by soil treatment (Table 19, symbol O); type: in vivo, lambsquarters (Chenopodium album); details: amount of applied herbicide 320 g/ha
How it was run: as §1

windgrass [21] = test: Test Example 4: herbicidal effect by soil treatment (Table 19, symbol L); type: in vivo, windgrass (Apera spica-venti); details: amount of applied herbicide 320 g/ha
How it was run: as §1

southern crabgrass [22] = test: Test Example 4: herbicidal effect by soil treatment (Table 19, symbol F); type: in vivo, southern crabgrass (Digitaria ciliaris); details: amount of applied herbicide 320 g/ha
How it was run: as §1

green foxtail [23] = test: Test Example 4: herbicidal effect by soil treatment (Table 19, symbol G); type: in vivo, green foxtail (Setaria viridis); details: amount of applied herbicide 320 g/ha
How it was run: as §1

persian speedwell [24] = test: Test Example 4: herbicidal effect by soil treatment (Table 19, symbol R); type: in vivo, Persian speedwell (Veronica persica); details: amount of applied herbicide 320 g/ha
How it was run: as §1

velvetleaf [25] = test: Test Example 5: herbicidal effect by foliage application, plastic box (Table 20, symbol M); type: in vivo, velvetleaf (Abutilon theophrasti); details: foliage application, AAH 320 g/ha, evaluated three weeks after application
How it was run: as §2

rice flat sedge = test: Test Example 3: herbicidal effect by foliage application, Wagner pot (Table 18, symbol E); type: in vivo, rice flat sedge (Cyperus iria); details: amount of applied herbicide 320 g/ha
How it was run: as §3

Row | Structure (SMILES) | P: chickweed, herbicidal effect (criteria 0-5) (chickweed [3]) | K: Italian ryegrass, herbicidal effect (criteria 0-5) (Italian ryegrass [4]) | herbicidal effect on D: Chinese sprangletop (Chinese sprangletop) | G: green foxtail, herbicidal effect (criteria 0-5) (green foxtail [6]) | H: barnyard grass, herbicidal effect (criteria 0-5) (barnyard grass [8]) | J: blackgrass, herbicidal effect (criteria 0-5) (blackgrass [10]) | herbicidal effect on H: barnyard grass (barnyard grass [12]) | L: windgrass, herbicidal effect (criteria 0-5) (windgrass [13]) | R: persian speedwell, herbicidal effect (criteria 0-5) (persian speedwell [14]) | I: wild oat, herbicidal effect (criteria 0-5) (wild oat [15]) | N: redroot pigweed, herbicidal effect (criteria 0-5) (redroot pigweed [16]) | F: southern crabgrass, herbicidal effect (criteria 0-5) (southern crabgrass [17]) | O: lambsquarters, herbicidal effect (criteria 0-5) (lambsquarters [18]) | M: velvetleaf, herbicidal effect (criteria 0-5) (velvetleaf [25]) | herbicidal effect on E: rice flat sedge (rice flat sedge) | other results
1 | Cc1nn(C)c(=O)c(-c2c(-c3ccc(Cl)cc3Cl)sc3ccc(F)cc23)c1O [2-346] | 5 (Herbicidal rate of 90% or more (almost completely withered)) | 3 (Herbicidal rate of 40% or more and less than 70%) | 3 (Herbicidal rate of 40% or more and less than 70%) | 0 (Herbicidal rate of 5% or less (almost no effect)) | 0 (Herbicidal rate of 5% or less (almost no effect)) | 0 (Herbicidal rate of 5% or less (almost no effect)) | 4 (Herbicidal rate of 70% or more and less than 90%) | 2 (Herbicidal rate of 20% or more and less than 40%) | 4 (Herbicidal rate of 70% or more and less than 90%) | 0 (Herbicidal rate of 5% or less (almost no effect)) | 3 (Herbicidal rate of 40% or more and less than 70%) | 0 (Herbicidal rate of 5% or less (almost no effect)) | 2 (Herbicidal rate of 20% or more and less than 40%) | 1 (Herbicidal rate of 5% or more and less than 20%) | 1 (Herbicidal rate of 5% or more and less than 20%) | herbicidal effect on P: chickweed (chickweed [1]): 0 (Herbicidal rate of 5% or less (almost no effect)); herbicidal effect on N: redroot pigweed (redroot pigweed [2]): 0 (Herbicidal rate of 5% or less (almost no effect)); herbicidal effect on I: wild oat (wild oat [5]): 0 (Herbicidal rate of 5% or less (almost no effect)); herbicidal effect on M: velvetleaf (velvetleaf [7]): 0 (Herbicidal rate of 5% or less (almost no effect)); herbicidal effect on K: Italian ryegrass (Italian ryegrass [9]): 0 (Herbicidal rate of 5% or less (almost no effect)); herbicidal effect on H: barnyard grass (barnyard grass [11]): 0 (Herbicidal rate of 5% or less (almost no effect)); herbicidal effect on J: blackgrass (blackgrass [19]): 0 (Herbicidal rate of 5% or less (almost no effect)); herbicidal effect on O: lambsquarters (lambsquarters [20]): 3 (Herbicidal rate of 40% or more and less than 70%); herbicidal effect on L: windgrass (windgrass [21]): 0 (Herbicidal rate of 5% or less (almost no effect)); herbicidal effect on F: southern crabgrass (southern crabgrass [22]): 0 (Herbicidal rate of 5% or less (almost no effect)); herbicidal effect on G: green foxtail (green foxtail [23]): 0 (Herbicidal rate of 5% or less (almost no effect)); herbicidal effect on R: persian speedwell (persian speedwell [24]): 0 (Herbicidal rate of 5% or less (almost no effect))
2 | CCn1nc(C)c(O)c(-c2c(-c3ccc(C(F)(F)F)cc3)sc3ccc(F)cc23)c1=O [2-402] | 5 (Herbicidal rate of 90% or more (almost completely withered)) | 5 (Herbicidal rate of 90% or more (almost completely withered)) | 3 (Herbicidal rate of 40% or more and less than 70%) | 3 (Herbicidal rate of 40% or more and less than 70%) | 5 (Herbicidal rate of 90% or more (almost completely withered)) | 5 (Herbicidal rate of 90% or more (almost completely withered)) | 5 (Herbicidal rate of 90% or more (almost completely withered)) | 5 (Herbicidal rate of 90% or more (almost completely withered)) | 5 (Herbicidal rate of 90% or more (almost completely withered)) | 4 (Herbicidal rate of 70% or more and less than 90%) | 4 (Herbicidal rate of 70% or more and less than 90%) | 4 (Herbicidal rate of 70% or more and less than 90%) | 4 (Herbicidal rate of 70% or more and less than 90%) | 4 (Herbicidal rate of 70% or more and less than 90%) | 3 (Herbicidal rate of 40% or more and less than 70%) | herbicidal effect, P: chickweed (chickweed [1]): 4 (Herbicidal rate of 70% or more and less than 90%); herbicidal effect, N: redroot pigweed (redroot pigweed [2]): 1 (Herbicidal rate of 5% or more and less than 20%); herbicidal effect, I: wild oat (wild oat [5]): 0 (Herbicidal rate of 5% or less (almost no effect)); herbicidal effect, M: velvetleaf (velvetleaf [7]): 0 (Herbicidal rate of 5% or less (almost no effect)); herbicidal effect, K: Italian ryegrass (Italian ryegrass [9]): 2 (Herbicidal rate of 20% or more and less than 40%); herbicidal effect, H: barnyard grass (barnyard grass [11]): 0 (Herbicidal rate of 5% or less (almost no effect)); herbicidal effect, J: blackgrass (blackgrass [19]): 0 (Herbicidal rate of 5% or less (almost no effect)); herbicidal effect, O: lambsquarters (lambsquarters [20]): 1 (Herbicidal rate of 5% or more and less than 20%); herbicidal effect, L: windgrass (windgrass [21]): 2 (Herbicidal rate of 20% or more and less than 40%); herbicidal effect, F: southern crabgrass (southern crabgrass [22]): 2 (Herbicidal rate of 20% or more and less than 40%); herbicidal effect, G: green foxtail (green foxtail [23]): 0 (Herbicidal rate of 5% or less (almost no effect)); herbicidal effect, R: persian speedwell (persian speedwell [24]): 5 (Herbicidal rate of 90% or more (almost completely withered))
